Test results reported in paper PMC2972219, “Ionotropic Glutamate Receptor AMPA 1 Is Associated with Ovulation Rate” (PLoS ONE, 2010).

Legend:
[1] = biological target: GRIA1^Ser (brain membrane fraction of S/S cows); assay: [3H]AMPA ligand binding assay, membrane fractions from brain of S/S cows; design: species or system bovine; details: saturation binding of [3H]AMPA 1-200 nM, n = 3
Protocol: (§1) Membrane fractions were extracted from bovine brain as described previously, and 25 µg of protein were resolved by SDS-PAGE and transferred to polyvinylidene difluoride membranes. The blots were incubated with rabbit polyclonal antibody to GRIA1 (1∶1000, AB1504, Millipore, Tokyo, Japan) or actin (1∶200, A2066, Sigma-Aldrich, St. Louis, MO).
(§2) Protein (500 µg/ml) was used for a ligand binding assay with [^3H] AMPA (392.2 GBq/mmol, 1–200 nM) as described previously. Non-specific binding obtained by incubating 1 mM L- glutamate in the binding assay was subtracted from total binding to yield specific [^3H] AMPA- binding.

[2] = biological target: GRIA1 (brain membrane fraction of S/N cows); assay: [3H]AMPA ligand binding assay, membrane fractions from brain of S/N cows; design: species or system bovine; details: saturation binding of [3H]AMPA 1-200 nM, n = 3
Protocol: as §1, §2

LH release = system: LH release; design: method as in PMID 9331548; details: infusion into the third cerebral ventricle, ovariectomized estrogen-primed adult female rats; cited from earlier work
[3] = biological target: GRIA1^Asn (brain membrane fraction of N/N cows); assay: [3H]AMPA ligand binding assay, membrane fractions from brain of N/N cows; design: species or system bovine; details: saturation binding of [3H]AMPA 1-200 nM, n = 3
Protocol: as §1, §2

GRIA1^Ser with GRIA2 = assay: Whole-cell current responses in Xenopus oocytes coexpressing GRIA1^Ser with GRIA2; type: cell-based, bovine; details: Xenopus oocytes expressing GRIA1^Ser coexpressed with GRIA2, n = 8; read-out: EC50 of current response
Protocol: (§3) Bovine GRIA1 mRNAs were synthesized using mMESSAGE mMACHINE® SP6 Kit (Applied Biosystems) and injected into Xenopus oocytes as described previously. Whole-cell current responses to 1, 3, 10, 30, 100, and 300 µM glutamate were recorded as described previously.

GRIA1^Asn with GRIA2 = assay: Whole-cell current responses in Xenopus oocytes coexpressing GRIA1^Asn with GRIA2; type: cell-based, bovine; details: Xenopus oocytes expressing GRIA1^Asn coexpressed with GRIA2, n = 8; read-out: EC50 of current response
Protocol: as §3

GRIA1^Asn = biological target: T1, GRIA1^Asn (Bos taurus, UniProt G0T3G6, S306N); assay: Whole-cell current responses in Xenopus oocytes injected with GRIA1^Asn mRNA; type: cell-based, bovine; details: Xenopus oocytes expressing GRIA1^Asn alone, glutamate 1-300 µM, n = 9; read-out: EC50 of current response
T1 construct: expressed in transfected cells; host or cells: Xenopus oocytes (mRNA injection)
Protocol: as §3

GRIA1^Ser = biological target: T2, GRIA1^Ser (Bos taurus, UniProt G0T3G6); assay: Whole-cell current responses in Xenopus oocytes injected with GRIA1^Ser mRNA; type: cell-based, bovine; details: Xenopus oocytes expressing GRIA1^Ser alone, glutamate 1-300 µM, n = 10; read-out: EC50 of current response
T2 construct: expressed in transfected cells; host or cells: Xenopus oocytes (mRNA injection)
Protocol: as §3

[4] = system: GT1-7 cells expressing GRIA1^Ser; assay: GnRH release from GT1-7 cells expressing GRIA1 (enzyme immunoassay); type: cell-based, murine; details: 100 µM glutamate for 30 min, GT1-7 cells expressing GRIA1^Ser compared with GRIA1^Asn
Protocol: We amplified bovine GRIA1 that had been cloned into pTracer-nucGFP with primers GRIA1InFusionF and R and then switched into pCAGGS (N-R) using the In-Fusion™ Advantage PCR Cloning Kit (Takara Bio Inc., Shiga, Japan) to produce HA-tagged protein under the control of a ubiquitous strong promoter that was based on the β-actin promoter.
GT1-7 cells were cultured in six-well dishes coated with poly-L-ornithine (BD Biocoat [PLO/LM] 354658, Becton Dickinson and Company, Franklin Lakes, NJ) with conditioned-Dulbecco's modified Eagles medium (C-MEM), which was comprised of a 1∶1 mixture of conditioned medium from mouse embryonic astrocytes in primary culture and Dulbecco's modified Eagles medium with high glucose (Invitrogen) supplemented with 10% fetal calf serum, penicillin (100 U/ml), and streptomycin (100 µg/ml). When cells reached 90 % confluence, C-MEM was replaced with Opti-MEM (Invitrogen) and transfected with Lipofectamine 2000 (Invitrogen) for 24 h.
The next day, confluent GT1-7 cells were treated as described previously. The concentration of GnRH in the media was assayed using an LH-releasing hormone enzyme immunoassay kit (S-1217, Peninsula Laboratories, LLC, San Carlos, CA) according to the manufacturer's instructions.

T1 sequence (G0T3G6 19-906 S306N): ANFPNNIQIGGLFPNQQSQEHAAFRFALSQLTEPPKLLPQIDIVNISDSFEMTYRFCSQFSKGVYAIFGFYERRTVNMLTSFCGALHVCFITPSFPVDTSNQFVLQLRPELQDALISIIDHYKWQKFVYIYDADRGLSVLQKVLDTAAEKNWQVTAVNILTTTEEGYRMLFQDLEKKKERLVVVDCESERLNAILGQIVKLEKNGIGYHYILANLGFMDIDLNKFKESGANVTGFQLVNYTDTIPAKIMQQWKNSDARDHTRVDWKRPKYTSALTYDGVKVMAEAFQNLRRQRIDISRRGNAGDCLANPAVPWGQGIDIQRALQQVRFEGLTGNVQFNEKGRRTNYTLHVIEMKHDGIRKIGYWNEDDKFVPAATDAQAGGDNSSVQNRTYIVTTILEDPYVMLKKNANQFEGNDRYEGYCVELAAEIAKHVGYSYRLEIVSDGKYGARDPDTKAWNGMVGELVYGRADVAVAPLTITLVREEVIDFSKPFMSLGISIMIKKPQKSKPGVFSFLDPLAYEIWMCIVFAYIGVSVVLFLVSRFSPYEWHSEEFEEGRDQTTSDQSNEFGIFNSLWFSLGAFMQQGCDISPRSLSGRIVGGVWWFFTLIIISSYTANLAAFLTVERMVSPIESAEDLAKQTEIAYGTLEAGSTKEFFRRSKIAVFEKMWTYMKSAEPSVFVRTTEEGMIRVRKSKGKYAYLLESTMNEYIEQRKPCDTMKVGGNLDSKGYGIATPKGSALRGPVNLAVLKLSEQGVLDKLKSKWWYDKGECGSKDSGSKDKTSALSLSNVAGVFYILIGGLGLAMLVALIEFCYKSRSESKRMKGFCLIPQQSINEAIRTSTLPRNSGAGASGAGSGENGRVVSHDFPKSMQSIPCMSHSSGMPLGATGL
T2 sequence (G0T3G6 19-906): as the sequence (G0T3G6 19-906 S306N) above, with N288S counted along it

SMILES | Kd [1] [µM] | Kd [2] [µM] | LH release (LH release) | Kd [3] [µM] | EC50 (GRIA1^Ser with GRIA2) [µM] | EC50 (GRIA1^Asn with GRIA2) [µM] | EC50 (GRIA1^Asn) [µM] | EC50 (GRIA1^Ser) [µM] | GnRH release [4]
Cc1o[nH]c(=O)c1CC(N)C(=O)O (stereo not drawn) [AMPA] | 0.0277 | 0.0436 | induces LH release | 0.0596 |  |  |  |  | 
N[C@@H](CCC(=O)O)C(=O)O [glutamate] |  |  |  |  | 4.9 | 10.4 | 10.7 | 4.5 | induced the release of more GnRH than that from cells expressing GRIA1^Asn
